Source: PMC7532004, “Site-specific effects of neurosteroids on GABAA receptor activation and desensitization” (eLife, 2020)

Target: T1, α1β3 GABAAR WT (Homo sapiens, UniProt P14867+P28472)
T1 construct: inserted between the fourth and fifth residues of the mature peptide; photolabeling full-length heteropentameric GABAARs in native membranes; expressed in transfected cells
T1 sequence (P14867 28-456): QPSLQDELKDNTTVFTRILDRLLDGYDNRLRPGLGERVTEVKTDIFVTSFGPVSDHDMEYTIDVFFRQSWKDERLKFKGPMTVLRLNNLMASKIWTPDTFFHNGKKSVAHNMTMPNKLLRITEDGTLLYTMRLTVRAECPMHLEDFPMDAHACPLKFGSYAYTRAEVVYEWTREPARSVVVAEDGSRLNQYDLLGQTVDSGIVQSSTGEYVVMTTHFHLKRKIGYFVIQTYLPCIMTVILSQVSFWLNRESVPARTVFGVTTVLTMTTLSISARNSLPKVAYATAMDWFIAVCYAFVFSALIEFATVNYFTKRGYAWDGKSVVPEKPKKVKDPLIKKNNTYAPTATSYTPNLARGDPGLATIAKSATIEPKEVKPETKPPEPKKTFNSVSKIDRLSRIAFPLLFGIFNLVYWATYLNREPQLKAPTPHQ
T1 sequence (P28472 26-473): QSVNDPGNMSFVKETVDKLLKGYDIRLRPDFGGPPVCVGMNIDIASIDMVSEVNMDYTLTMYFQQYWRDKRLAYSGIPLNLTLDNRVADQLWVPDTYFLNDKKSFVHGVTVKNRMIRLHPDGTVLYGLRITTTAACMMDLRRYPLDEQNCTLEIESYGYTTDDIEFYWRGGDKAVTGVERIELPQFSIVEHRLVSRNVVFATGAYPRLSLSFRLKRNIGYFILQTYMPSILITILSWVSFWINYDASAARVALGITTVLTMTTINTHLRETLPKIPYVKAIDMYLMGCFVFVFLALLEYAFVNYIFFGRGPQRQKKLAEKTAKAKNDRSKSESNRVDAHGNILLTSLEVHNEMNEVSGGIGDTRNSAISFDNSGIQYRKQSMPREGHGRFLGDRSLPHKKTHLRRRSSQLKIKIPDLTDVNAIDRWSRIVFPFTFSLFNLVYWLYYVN
Experiment: [3H]muscimol binding to HEK cell membranes (neurosteroid modulation and isotherms), WT receptor
Conditions: WT α1β3
Description: Stably transfected cells were plated into dishes. After reaching 50% confluence, GABAA receptors were expressed by inducing cells with 1 μg/ml of doxycycline with the addition of 5 mM sodium butyrate. Cells were harvested 48 to 72 hr after induction. HEK cells, after induction, were grown to 100% confluence, harvested and washed with 10 mM potassium phosphate, 100 mM potassium chloride (pH 7.5) plus protease inhibitors (Sigma-Aldrich, St. Louis, MO) two times. The cells were collected by centrifugation at 1,000 g at 4°C for 5 min. The cells were homogenized with a glass mortar and a Teflon pestle for ten strokes on ice. The pellet containing the membrane proteins was collected after centrifugation at 20,000 g at 4°C for 45 min and resuspended in a buffer containing 10 mM potassium phosphate, 100 mM potassium chloride (pH 7.5). The protein concentration was determined with micro-BCA protein assay and membranes were stored at −80°C.
[^3H]muscimol-binding assays were performed using a previously described method ([Chen et al., 2019]). […] Assay tubes were incubated for 1 hr on ice in the dark. […] Membranes were collected on Whatman/GF-C glass filter papers using a Brandel cell harvester (Gaithersburg, MD). To perform [^3H]muscimol binding isotherms, 100 μg/ml aliquots of membrane protein were incubated with 0.3 nM–1 μM [^3H]muscimol for 1 hr on ice in the dark. The specific activity for [^3H]muscimol concentrations from 30 nM to 1 μM was reduced to 2 Ci/mmol by dilution with nonradioactive muscimol. The membranes were collected on Whatman/GF-B glass filter papers using a vacuum manifold. […] For [^3H]muscimol-binding experiments examining competitive interactions between neurosteroids, the combined neurosteroids (0.3 μM 3α5αP or 3 μM KK148 ±30 μM KK150) or the same volume of dimethyl sulfoxide (DMSO) were added to the membranes which were then incubated with 3 nM [^3H]muscimol on ice for 1 hr. Time courses of neurosteroid [^3H]muscimol binding enhancement were examined by adding 10 µM of neurosteroids (3α5αP, 3β5αP) to membranes that had been fully equilibrated with 3 nM [^3H]muscimol for 1 hr on ice; binding was then measured as a function of time at 1, 3, 10, 30, 60 min. The membranes were collected on Whatman/GF-B glass filter papers using a vacuum manifold. Radioactivity bound to the filters was measured by liquid scintillation spectrometry using Bio-Safe II (Research Products International, Mount Prospect, IL).

CCOC(=O)c1cncn1[C@H](C)c1ccccc1 [Etomidate, etomidate]
Emax (% of control) of [3H]muscimol binding (3 nM [3H]muscimol, 100% means no effect): 331.1 ± 9.9 % of control
Bmax of [3H]muscimol binding isotherm in the presence of the modulator (etomidate 100 μM, 3α5αP 30 μM, KK148 30 μM, control 9.8 ± 0.8): 10.1 ± 0.5 pmol/mg
